Test results: the NIST ThermoML archive (doi:10.1021/je700546r)
Values joined by “and” are separate entries in the source; they are usually repeats but may differ in a detail not shown here. Identical values can stand only once.

How the values were obtained:
[1] = molar heat capacity at constant pressure; details: 100 kPa, Small (less than 1 g) adiabatic calorimetry
[2] = for Triple point temperature: Adiabatic calorimetry
[3] = Molar enthalpy of transition or fusion; details: Crystal 1; Adiabatic calorimetry

ON=C1CCCCC1 [cyclohexanone oxime]
Details	molar heat capacity at constant pressure [J/K/mol]	vapor or sublimation pressure
[1], 5 K, Crystal 3	0.3674	–
[1], 10 K, Crystal 3	2.982	–
[1], 15 K, Crystal 3	7.554	–
[1], 20 K, Crystal 3	12.9	–
[1], 25 K, Crystal 3	18.36	–
[1], 30 K, Crystal 3	23.53	–
[1], 35 K, Crystal 3	28.21	–
[1], 40 K, Crystal 3	32.42	–
[1], 45 K, Crystal 3	36.26	–
[1], 50 K, Crystal 3	39.78	–
[1], 60 K, Crystal 3	45.91	–
[1], 70 K, Crystal 3	51.28	–
[1], 80 K, Crystal 3	56.24	–
[1], 90 K, Crystal 3	60.87	–
[1], 100 K, Crystal 3	65.47	–
[1], 110 K, Crystal 3	69.94	–
[1], 120 K, Crystal 3	74.33	–
[1], 130 K, Crystal 3	78.7	–
[1], 140 K, Crystal 3	83.1	–
[1], 150 K, Crystal 3	87.59	–
[1], 160 K, Crystal 3	92.16	–
[1], 170 K, Crystal 3	96.94	–
[1], 180 K, Crystal 3	102.1	–
[1], 190 K, Crystal 3	107.7	–
[1], 200 K, Crystal 3	113.9	–
[1], 210 K, Crystal 3	122.3	–
[1], 220 K, Crystal 3	132.6	–
[1], 230 K, Crystal 3	141.9	–
[1], 240 K, Crystal 3	150.7	–
[1], 250 K, Crystal 2	153.4	–
[1], 260 K, Crystal 2	163.4	–
[1], 270 K, Crystal 2	174.5	–
[1], 280 K, Crystal 2	184.4	–
[1], 290 K, Crystal 2	191.9	–
[1], 298.15 K, Crystal 2	196.2	–
[1], 300 K, Crystal 2	197.1	–
[1], 310 K, Crystal 1	192.8	–
[1], 320 K, Crystal 1	197.5	–
[1], 330 K, Crystal 1	203	–
[1], 340 K, Crystal 1	209	–
[1], 350 K, Crystal 1	215.2	–
[1], 360 K, Crystal 1	221.1	–
[1], 362.2 K, Crystal 1	222.4	–
[1], 362.2 K, Liquid	271.5	–
[1], 365 K, Liquid	273.1	–
[1], 370 K, Liquid	276	–
[2], 285.7 K, Crystal 2, Transpiration method	–	0.00078 kPa
[2], 288.11 K, Crystal 2, Knudsen effusion	–	0.001028 kPa
[2], 290 K, Crystal 2, Transpiration method	–	0.00118 kPa
[2], 292.6 K, Crystal 2, Transpiration method	–	0.00157 kPa
[2], 293.82 K, Crystal 2, Knudsen effusion	–	0.00186 kPa
[2], 293.87 K, Crystal 2, Knudsen effusion	–	0.001759 kPa
[2], 295.1 K, Crystal 2, Transpiration method	–	0.00215 kPa
[2], 298.1 K, Crystal 2, Transpiration method	–	0.00275 kPa
[2], 298.2 K, Crystal 2, Transpiration method	–	0.00302 kPa and 0.00293 kPa
[2], 298.77 K, Crystal 2, Knudsen effusion	–	0.003118 kPa
[2], 301.1 K, Crystal 2, Transpiration method	–	0.00396 kPa
[2], 302.9 K, Crystal 1, Transpiration method	–	0.005 kPa
[2], 303.73 K, Crystal 1, Knudsen effusion	–	0.005234 kPa
[2], 303.74 K, Crystal 1, Knudsen effusion	–	0.005145 kPa
[2], 305.4 K, Crystal 1, Transpiration method	–	0.00626 kPa
[2], 307.6 K, Crystal 1, Transpiration method	–	0.00806 kPa
[2], 308.7 K, Crystal 1, Knudsen effusion	–	0.00837 kPa
[2], 310.2 K, Crystal 1, Transpiration method	–	0.01034 kPa
[2], 313 K, Crystal 1, Transpiration method	–	0.0136 kPa
[2], 313.62 K, Crystal 1, Knudsen effusion	–	0.01375 kPa
[2], 315.3 K, Crystal 1, Transpiration method	–	0.01601 kPa
[2], 318 K, Crystal 1, Transpiration method	–	0.02155 kPa
[2], 320.3 K, Crystal 1, Transpiration method	–	0.02671 kPa
[2], 323.1 K, Crystal 1, Transpiration method	–	0.03364 kPa
[2], 323.32 K, Crystal 1, Knudsen effusion	–	0.03373 kPa
[2], 323.35 K, Crystal 1, Knudsen effusion	–	0.03472 kPa
[2], 325.4 K, Crystal 1, Transpiration method	–	0.04273 kPa
[2], 328 K, Crystal 1, Transpiration method	–	0.05312 kPa
[2], 330.4 K, Crystal 1, Transpiration method	–	0.06593 kPa
[2], 333.1 K, Crystal 1, Transpiration method	–	0.08234 kPa
[2], 338.2 K, Crystal 1, Transpiration method	–	0.1232 kPa
[2], 340.2 K, Crystal 1, Transpiration method	–	0.1376 kPa
[2], 343.3 K, Crystal 1, Transpiration method	–	0.1758 kPa
[2], 345.6 K, Crystal 1, Transpiration method	–	0.213 kPa
[2], 348.3 K, Crystal 1, Transpiration method	–	0.2639 kPa

[2], Liquid, Transpiration method
Details	vapor or sublimation pressure [kPa]
364.6 K	0.8624
365.7 K	0.8948
367.9 K	1.03
369.7 K	1.119
370.5 K	1.181
373.6 K	1.388
373.7 K	1.405
376.6 K	1.661
377.7 K	1.759
377.8 K	1.786
379.7 K	1.922
381.8 K	2.124
382.8 K	2.221
385.8 K	2.574
388.9 K	3.046
391.9 K	3.486
394.9 K	3.978

[2]
Details	Triple point temperature [K]
Crystal 1	362.2
Crystal 2	301.5
Crystal 3	241.5

Details	Molar enthalpy of transition or fusion [kcal/mol]
[3]	2.977
